The source of these data is US9187458B2, “Cyanoquinoline derivatives” (Tianjin Hemay Bio-Tech Co., LTD., priority 2010, dated 2015).

Structures are written as SMILES.

This assay concerns Fadu cells. The assay is described as follows: Fadu Cell Growth Inhibition Test (MTT Assay). Conditions: Homo sapiens, 72 h incubation. In kind it is cell-based. Summed up:
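Fadu head and neck cancer cells in EMEM + 10% FBS, 6000 cells/well, dosed next day and incubated 72 h at 37 °C, 5% CO2. MTT 0.5 mg/ml for 3 h, DMSO solubilization, OD at 490 nm; inhibition ratio from positive and negative controls, IC50 from fitted curve.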
`C#Cc1cccc(Nc2c(C#N)cnc3cc(O[C@H]4CCOC4)c(NC(=O)/C=C/CN4CCOCC4)cc23)c1` [Example 145, (S,E)-N-(3-CYANO-4-(3-ETHYNYLPHENYLAMINO)-7-(TETRAHYDROFURAN-3-YL-OXY)QUINOLIN-6-YL)-4-(MORPHOLIN-4-YL)-BUT-2-ENAMIDE]: the IC50 (in general, the midpoint of a concentration-inhibition curve) was found to be 194 nM. The figure for `CC(C)(C)NC/C=C/C(=O)Nc1cc2c(Nc3ccc(OCc4ccccn4)c(Cl)c3)c(C#N)cnc2cc1O[C@H]1CCOC1` [Example 153, (S,E)-N-(4-(3-CHLORO-4-(PYRIDIN-2-YL-METHOXY)PHENYLAMINO)-3-CYANO-7-(TETRAHYDROFURAN-3-YL-OXY)QUINOLIN-6-YL)-4-(TERT-BUTYLAMINO)-BUT-2-ENAMIDE] is 231 nM; for `CN(C)C/C=C/C(=O)Nc1cc2c(Nc3ccc(OCc4ccccc4F)c(Cl)c3)c(C#N)cnc2cc1OC1CCOC1` (centres unmarked) [Example 8, (E)-N-(4-(4-(2-FLUOROBENZYLOXY)-3-CHLOROPHENYLAMINO)-3-CYANO-7-(TETRAHYDROFURAN-3-YL-OXY)QUINOLIN-6-YL)-4-(DIMETHYLAMINO)-BUT-2-ENAMIDE] it is 188 nM; for `CN(C)C/C=C/C(=O)Nc1cc2c(Nc3ccc(OCc4ccccc4C#N)c(Cl)c3)c(C#N)cnc2cc1OC1CCOC1` (centres unmarked) [Example 13, (E)-N-(4-(4-(2-CYANOBENZYLOXY)-3-CHLOROPHENYLAMINO)-3-CYANO-7-(TETRAHYDROFURAN-3-YL-OXY)QUINOLIN-6-YL)-4-(DIMETHYLAMINO)-BUT-2-ENAMIDE] it is 300 nM. As to `CN(C)C/C=C/C(=O)Nc1cc2c(Nc3ccc(OCc4ccccc4)c(Cl)c3)c(C#N)cnc2cc1OC1CCOC1` (centres unmarked) [Example 12, (E)-N-(4-(4-(BENZYLOXY)-3-CHLOROPHENYLAMINO)-3-CYANO-7-(TETRAHYDROFURAN-3-YL-OXY)QUINOLIN-6-YL)-4-(DIMETHYLAMINO)-BUT-2-ENAMIDE], half-maximal inhibition (IC50) was put at 202 nM. This IC50 and that of the compound before are within 1.5-fold of each other. The figure for `CN(C)C/C=C/C(=O)Nc1cc2c(Nc3cccc(Br)c3)c(C#N)cnc2cc1OC1CCOC1` (centres unmarked) [Example 7, (E)-N-(4-(3-BROMOPHENYLAMINO)-3-CYANO-7-(TETRAHYDROFURAN-3-YL-OXY)QUINOLIN-6-YL)-4-(DIMETHYLAMINO)-BUT-2-ENAMIDE] is 474 nM. The value for `CN(C)C/C=C/C(=O)Nc1cc2c(Nc3ccc(OCc4cccc(Cl)c4)c(Cl)c3)c(C#N)cnc2cc1OC1CCOC1` (centres unmarked) [Example 11, (E)-N-(4-(4-(3-CHLOROBENZYLOXY)-3-CHLOROPHENYLAMINO)-3-CYANO-7-(TETRAHYDROFURAN-3-YL-OXY)QUINOLIN-6-YL)-4-(DIMETHYLAMINO)-BUT-2-ENAMIDE] was 187 nM.

Compound `C#Cc1cccc(Nc2c(C#N)cnc3cc(O[C@H]4CCOC4)c(NC(=O)/C=C/CN4CCCCC4)cc23)c1` [Example 144, (S,E)-N-(3-CYANO-4-(3-ETHYNYLPHENYLAMINO)-7-(TETRAHYDROFURAN-3-YL-OXY)QUINOLIN-6-YL)-4-(PIPERIDIN-1-YL)-BUT-2-ENAMIDE] displayed an IC50 of 103 nM. For `N#Cc1cnc2cc(O[C@H]3CCOC3)c(NC(=O)/C=C/CN3CCOCC3)cc2c1Nc1ccc(OCc2ccccn2)c(Cl)c1` [Example 152, (S,E)-N-(4-(3-CHLORO-4-(PYRIDIN-2-YL-METHOXY)PHENYLAMINO)-3-CYANO-7-(TETRAHYDROFURAN-3-YL-OXY)QUINOLIN-6-YL)-4-(MORPHOLIN-4-YL)-BUT-2-ENAMIDE], inhibition was half-maximal at 170 nM (IC50). Compared with the last compound, the IC50 is about 1.7-fold higher.

For `C#Cc1cccc(Nc2c(C#N)cnc3cc(O[C@H]4CCOC4)c(NC(=O)/C=C/CN(C)Cc4ccccc4)cc23)c1` [Example 149, (S,E)-N-(3-CYANO-4-(3-ETHYNYLPHENYLAMINO)-7-(TETRAHYDROFURAN-3-YL-OXY)QUINOLIN-6-YL)-4-(N-METHYLBENZYLAMINO)-BUT-2-ENAMIDE], the IC50 is 163 nM. As for `C#Cc1cccc(Nc2c(C#N)cnc3cc(O[C@H]4CCOC4)c(NC(=O)/C=C/CN(CC)CC)cc23)c1` [Example 143, (S,E)-N-(3-CYANO-4-(3-ETHYNYLPHENYLAMINO)-7-(TETRAHYDROFURAN-3-YL-OXY)QUINOLIN-6-YL)-4-(DIETHYLAMINO)-BUT-2-ENAMIDE], the IC50 worked out at 127 nM.
